Data set [1] can be described thus: Solubility study. Type of data set: physicochemical. The source says: The mixture was sonicated to facilitate dissolution.
For data set [2], the target named is human recombinant GHS receptor (Homo sapiens, UniProt Q92847). The following applies: read-out: hGHS Ki; 0.05 nM (125I)ghrelin, 60 min, 4° C., CHO-K1 membranes.
Experimental: Radioligand Binding Assays
Cellular membranes used for the in vitro receptor binding assay were obtained from transgenic CHO-K1 cells stably expressing the human recombinant GHS receptor. CHO-K1 cells stably expressing the hGHS receptor were homogenized in 20 ml of ice-cold 50 mM Tris-HCl with a Brinkman Polytron (Westbury, N.Y., USA) (setting 6, 15 sec). The homogenates were washed twice by centrifugation (39,000 g/10 min), and the final pellets were resuspended in 50 mM Tris-HCl, containing 2.5 mM MgCl2, and 0.1% BSA.

Molecules are shown by their SMILES. Structures can show the parent of a compound that is named as a salt. Non-standard residues stand in square brackets, D forms with d. Residues, ends and D or L forms follow the SMILES beside them. dBip = N[C@H](Cc1ccc(-c2ccccc2)cc1)C(=O)O; dBta = N[C@H](Cc1csc2ccccc12)C(=O)O; Api = NC1(C(=O)O)CCNCC1; Inp = O=C(O)C1CCNCC1

Sequence of human recombinant GHS receptor (Q92847 whole entry): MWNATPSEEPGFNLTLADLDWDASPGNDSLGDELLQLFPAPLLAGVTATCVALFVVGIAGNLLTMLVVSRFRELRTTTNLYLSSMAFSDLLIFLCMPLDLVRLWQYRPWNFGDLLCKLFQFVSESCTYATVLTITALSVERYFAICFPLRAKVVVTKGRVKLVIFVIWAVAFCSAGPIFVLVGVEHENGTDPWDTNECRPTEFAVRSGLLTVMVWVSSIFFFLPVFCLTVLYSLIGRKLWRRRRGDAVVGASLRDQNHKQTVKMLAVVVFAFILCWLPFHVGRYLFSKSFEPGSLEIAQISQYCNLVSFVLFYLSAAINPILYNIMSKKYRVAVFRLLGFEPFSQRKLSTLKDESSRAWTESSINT

As to `NC(=O)C1(NC(=O)[C@H](Cc2ccccc2)NC(=O)[C@@H](Cc2c[nH]c3ccccc23)NC(=O)[C@@H](Cc2csc3ccccc23)NC(=O)C2CCNCC2)CCNCC1` [Pamoate salt of Example 1 with Zn] (H-[Inp][dBta][dW]F[Api]-NH2), in data set [1] (PBS, pH 7.4, HPLC of supernatant), the “Solubility, PBS, pH 7.4” value is 0.08 mg/mL. Moreover, in data set [1] (HPLC of supernatant), the “Solubility, Water, pH 7.0” value turned out to be 0.14 mg/mL.
On to `NC(=O)C1(NC(=O)[C@H](Cc2ccccc2)NC(=O)[C@@H](Cc2c[nH]c3ccccc23)NC(=O)[C@@H](Cc2csc3ccccc23)NC(=O)C2CCNCC2)CCNCC1` [Pamoate salt of Example 1, pamoate salt of H-Inp-D-Bal-D-Trp-Phe-Apc-NH2] (H-[Inp][dBta][dW]F[Api]-NH2), for which the “Dissolution in PEG200/water” value in data set [1] (50 mg in 125 μL PEG200 and 125 μL water, sonicated) is on record as “A clear solution was obtained”. The solubility in data set [1] (PBS, pH 7.4, PBS, pH 7.4, HPLC of supernatant) is 70 µg/mL. Also, the “Solubility, Water, pH 7.0” value in data set [1] (HPLC of supernatant) stood at 0.06 mg/mL.
For `NC(=O)[C@H](Cc1ccccc1)NC(=O)[C@@H](Cc1c[nH]c2ccccc12)NC(=O)[C@@H](Cc1ccc(-c2ccccc2)cc1)NC(=O)C1CCNCC1` [Example 16, H-Inp-D-Bip-D-Trp-Phe-NH2] (H-[Inp][dBip][dW]F-NH2), in data set [2], the Ki turned out to be 20 nM.

These data come from patent US20160220637A1, “Pharmaceutical Compositions of Growth Hormone Secretagogue Receptor Ligands” (Ipsen Pharma S.A.S., priority 2010, published 2016).
